Experiment: In vitro release of model drugs methylene blue and BSA from NIPAAm-co-Dex-lactateHEMA hydrogel
Assay type: physicochemical
Settings: methylene blue from NIPAAm-co-Dex-lactateHEMA gel 5/4 (FIG. 9), PBS pH 7.4, 37° C.
Protocol: To test the potential of the developed hydrogels as drug release devices, two model drugs (22.5 mg) were loaded during the hydrogel synthesis, which were methylene blue and bovine serum albumin (BSA), representing small molecules and protein drugs, respectively. BSA- or methylene blue-loaded dry gels were immersed in a certain volume of PBS (pH 7.4) at 25 or 37° C. At selected time points, small volume of samples were taken and tested for solute concentration. The same volume of fresh PBS (pH 7.4) was replaced to maintain a constant volume of release medium. Concentration of methylene blue was measured by a UV spectrophotometer at 668 nm. Concentration of BSA was determined through Bradford protein assay.

loaded drug released in initial burst: more than 70%
time after which drug release reached a stable stage: three
SMILES: CN(C)c1ccc2nc3ccc(=[N+](C)C)cc-3sc2c1 [methylene blue]
